Test results: US20250352520A1, “USE OF DEXPRAMIPEXOLE FOR THE TREATMENT OF EOSINOPHILIC COPD” (Areteia Therapeutics, Inc., priority 2024, published 2025)

Settings: Week 16; >=50% AEC reduction at Week 16

CCCN[C@@H]1CCc2nc(N)sc2C1 [Dexpramipexole, (6R)-2-amino-4,5,6,7-tetrahydro-6-(propylamino)benzothiazole]
Pre-BD FEF25-75 % change from baseline, Max: 27% | Pre-BD FEF25-75 % change from baseline, Mean ± SD: 13.6 ± 13.59% | Pre-BD FEF25-75 % change from baseline, Median: 13.7% | Pre-BD FEF25-75 % change from baseline, Min: 0% | Pre-BD FEF25-75 % change from baseline, Q1: 0% | Pre-BD FEF25-75 % change from baseline, Q3: 27% | Pre-BD FEF25-75 Observed, Max: 1170 mL/s | Pre-BD FEF25-75 Observed, Mean ± SD: 736.7 ± 486.76 mL/s | Pre-BD FEF25-75 Observed, Median: 830.0 mL/s | Pre-BD FEF25-75 Observed, Min: 210 mL/s | Pre-BD FEF25-75 Observed, Q1: 210 mL/s | Pre-BD FEF25-75 Observed, Q3: 1170 mL/s | Pre-BD FEF25-75 change from baseline, Max: 250 mL/s | Pre-BD FEF25-75 change from baseline, Mean ± SD: 116.7 ± 125.83 mL/s | Pre-BD FEF25-75 change from baseline, Median: 100.0 mL/s | Pre-BD FEF25-75 change from baseline, Min: 0 mL/s | Pre-BD FEF25-75 change from baseline, Q1: 0 mL/s | Pre-BD FEF25-75 change from baseline, Q3: 250 mL/s | Pre-BD FEV1 % change from baseline, Max: 52% | Pre-BD FEV1 % change from baseline, Mean ± SD: 22.5 ± 25.80% | Pre-BD FEV1 % change from baseline, Median: 8.3% | Pre-BD FEV1 % change from baseline, Min: 7% | Pre-BD FEV1 % change from baseline, Q1: 7% | Pre-BD FEV1 % change from baseline, Q3: 52% | Pre-BD FEV1 Observed, Max: 1980 mL | Pre-BD FEV1 Observed, Mean ± SD: 1523.3 ± 657.29 mL | Pre-BD FEV1 Observed, Median: 1820.0 mL | Pre-BD FEV1 Observed, Min: 770 mL | Pre-BD FEV1 Observed, Q1: 770 mL | Pre-BD FEV1 Observed, Q3: 1980 mL | Pre-BD FEV1 change from baseline, Max: 680 mL | Pre-BD FEV1 change from baseline, Mean ± SD: 290.0 ± 340.73 mL | Pre-BD FEV1 change from baseline, Median: 140.0 mL | Pre-BD FEV1 change from baseline, Min: 50 mL | Pre-BD FEV1 change from baseline, Q1: 50 mL | Pre-BD FEV1 change from baseline, Q3: 680 mL | Pre-BD FVC % change from baseline, Max: 29% | Pre-BD FVC % change from baseline, Mean ± SD: 13.7 ± 13.73% | Pre-BD FVC % change from baseline, Median: 10.0% | Pre-BD FVC % change from baseline, Min: 2% | Pre-BD FVC % change from baseline, Q1: 2% | Pre-BD FVC % change from baseline, Q3: 29% | Pre-BD FVC Observed, Max: 3250 mL | Pre-BD FVC Observed, Mean ± SD: 2743.3 ± 470.57 mL | Pre-BD FVC Observed, Median: 2660.0 mL | Pre-BD FVC Observed, Min: 2320 mL | Pre-BD FVC Observed, Q1: 2320 mL | Pre-BD FVC Observed, Q3: 3250 mL | Pre-BD FVC change from baseline, Max: 730 mL | Pre-BD FVC change from baseline, Mean ± SD: 333.3 ± 351.62 mL | Pre-BD FVC change from baseline, Median: 210.0 mL | Pre-BD FVC change from baseline, Min: 60 mL | Pre-BD FVC change from baseline, Q1: 60 mL | Pre-BD FVC change from baseline, Q3: 730 mL | Pre-BD Peak Flow % change from baseline, Max: 115% | Pre-BD Peak Flow % change from baseline, Mean ± SD: 50.4 ± 56.32% | Pre-BD Peak Flow % change from baseline, Median: 21.5% | Pre-BD Peak Flow % change from baseline, Min: 14% | Pre-BD Peak Flow % change from baseline, Q1: 14% | Pre-BD Peak Flow % change from baseline, Q3: 115% | Pre-BD Peak Flow Observed, Max: 338 L/min | Pre-BD Peak Flow Observed, Mean ± SD: 240.0 ± 88.20 L/min | Pre-BD Peak Flow Observed, Median: 215.0 L/min | Pre-BD Peak Flow Observed, Min: 167 L/min | Pre-BD Peak Flow Observed, Q1: 167 L/min | Pre-BD Peak Flow Observed, Q3: 338 L/min | Pre-BD Peak Flow change from baseline, Max: 181 L/min | Pre-BD Peak Flow change from baseline, Mean ± SD: 80.0 ± 87.88 L/min | Pre-BD Peak Flow change from baseline, Median: 38.0 L/min | Pre-BD Peak Flow change from baseline, Min: 21 L/min | Pre-BD Peak Flow change from baseline, Q1: 21 L/min | Pre-BD Peak Flow change from baseline, Q3: 181 L/min
